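Interpolation was linear, between the two tested concentrations surrounding the appropriate level; five concentrations were tested over 48 hours in 96-well plates. GI50 = concentration required for 50% inhibition of growth.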 Active and inactive are the calls of the source. Cut-off read from the data, not from the text of the source: active = GI50 up to about 1.1 µM and inactive = higher.
Columns and labels:
Test in all cases: NCI-60 cell line screen, 48 h
SF-539 = tested on: SF-539
UO-31 = tested on: UO-31
KM-20L2 = tested on: KM-20L2
TK-10 = tested on: TK-10
HOP-18 = tested on: HOP-18
HCT-116 = tested on: HCT-116
NCI-H460 = tested on: NCI-H460
UACC-62 = tested on: UACC-62
DMS-273 = tested on: DMS-273
DLD-1 = tested on: DLD-1
UACC-257 = tested on: UACC-257
HL-60 = tested on: HL-60
SK-MEL-5 = tested on: SK-MEL-5
DMS-114 = tested on: DMS-114
KM12 = tested on: KM12
A549 = tested on: A549
SW-620 = tested on: SW-620
CCRF-CEM = tested on: CCRF-CEM
RPMI-8226 = tested on: RPMI-8226
HCC 2998 = tested on: HCC 2998
ACHN = tested on: ACHN
EKVX = tested on: EKVX
SF-268 = tested on: SF-268
SK-MEL-28 = tested on: SK-MEL-28
MOLT-4 = tested on: MOLT-4
SNB-78 = tested on: SNB-78
HCT-15 = tested on: HCT-15
LOX IMVI = tested on: LOX IMVI
CAKI-1 = tested on: CAKI-1
HT-29 = tested on: HT-29
LXFL 529 = tested on: LXFL 529
SK-OV-3 = tested on: SK-OV-3
IGROV-1 = tested on: IGROV-1
SNB-75 = tested on: SNB-75
NCI-H226 = tested on: NCI-H226
RXF 393 = tested on: RXF 393
COLO 205 = tested on: COLO 205
M14 = tested on: M14
U-251 = tested on: U-251
OVCAR-5 = tested on: OVCAR-5
SK-MEL-2 = tested on: SK-MEL-2
OVCAR-3 = tested on: OVCAR-3
NCI-H23 = tested on: NCI-H23
OVCAR-8 = tested on: OVCAR-8
K562 = tested on: K562
NCI-H522 = tested on: NCI-H522
SF-295 = tested on: SF-295
A498 = tested on: A498
HOP-62 = tested on: HOP-62
OVCAR-4 = tested on: OVCAR-4
HOP-92 = tested on: HOP-92
Malme-3M = tested on: Malme-3M
XF498 = tested on: XF498
SNB-19 = tested on: SNB-19
786-0 = tested on: 786-0
M19-MEL = tested on: M19-MEL
SN12C = tested on: SN12C

## COc1cc2c(cc1O)[C@H](C)C(c1ccc(OC)c(OC)c1)O2 (stereo not given in full)
SF-539
  GI50: 4.85 µM (inactive)
UO-31
  GI50: 5.69 µM (inactive)
KM-20L2
  GI50: 18.8 µM (inactive)
TK-10
  GI50: 15.7 µM (inactive)
HOP-18
  GI50: 4.36 µM (inactive)
HCT-116
  GI50: 3.6 µM (inactive)
NCI-H460
  GI50: 2.13 µM (inactive)
UACC-62
  GI50: 3.09 µM (inactive)
DMS-273
  GI50: 3.84 µM (inactive)
DLD-1
  GI50: 8.11 µM (inactive)
UACC-257
  GI50: 10.9 µM (inactive)
HL-60
  GI50: 3.41 µM (inactive)
SK-MEL-5
  GI50: 6.01 µM (inactive)
DMS-114
  GI50: 3.56 µM (inactive)
KM12
  GI50: 16.7 µM (inactive)
A549
  GI50: 7.24 µM (inactive)
SW-620
  GI50: 4.2 µM (inactive)
CCRF-CEM
  GI50: 6.21 µM (inactive)
RPMI-8226
  GI50: 8.2 µM (inactive)
HCC 2998
  GI50: 7.6 µM (inactive)
ACHN
  GI50: 10.6 µM (inactive)
EKVX
  GI50: 17.5 µM (inactive)
SF-268
  GI50: 44.4 µM (inactive)
SK-MEL-28
  GI50: 9.75 µM (inactive)
MOLT-4
  GI50: 6.41 µM (inactive)
SNB-78
  GI50: 17.3 µM (inactive)
HCT-15
  GI50: 3.08 µM
LOX IMVI
  GI50: 4.13 µM (inactive)
CAKI-1
  GI50: 3.67 µM (inactive)
HT-29
  GI50: 18 µM (inactive)
LXFL 529
  GI50: 9.35 µM (inactive)
SK-OV-3
  GI50: 9.48 µM (inactive)
IGROV-1
  GI50: 2.04 µM (inactive)
SNB-75
  GI50: 1.95 µM (inactive)
NCI-H226
  GI50: 12.4 µM (inactive)
RXF 393
  GI50: 11.7 µM (inactive)
COLO 205
  GI50: 20.4 µM (inactive)
M14
  GI50: 4.68 µM (inactive)
U-251
  GI50: 5.87 µM (inactive)
OVCAR-5
  GI50: 45.6 µM (inactive)
SK-MEL-2
  GI50: 3.1 µM (inactive)
OVCAR-3
  GI50: 5.66 µM (inactive)
NCI-H23
  GI50: 10.6 µM (inactive)
OVCAR-8
  GI50: 13.2 µM (inactive)
K562
  GI50: 2.98 µM (inactive)
NCI-H522
  GI50: 9.23 µM (inactive)
SF-295
  GI50: 6.56 µM (inactive)
A498
  GI50: 22.6 µM (inactive)
HOP-62
  GI50: 9.46 µM (inactive)
OVCAR-4
  GI50: 13 µM (inactive)
HOP-92
  GI50: 10.4 µM (inactive)
Malme-3M
  GI50: 10.3 µM (inactive)
XF498
  GI50: 10.1 µM (inactive)
SNB-19
  GI50: 1.68 µM (inactive)
786-0
  GI50: 11.3 µM (inactive)
M19-MEL
  GI50: 4.18 µM (inactive)

## Cc1nnc2n1N=C(c1ccccc1)C(c1ccccc1)S2 (stereo not given)
SF-539
  GI50: 31 µM (inactive)
UO-31
  GI50: 51.3 µM (inactive)
KM-20L2
  GI50: 27.4 µM (inactive)
TK-10
  GI50: > 100 µM (inactive)
HOP-18
  GI50: 60.7 µM (inactive)
HCT-116
  GI50: 38.2 µM (inactive)
NCI-H460
  GI50: 34.6 µM (inactive)
UACC-62
  GI50: 39.5 µM (inactive)
DMS-273
  GI50: 22.3 µM (inactive)
DLD-1
  GI50: 55.3 µM (inactive)
UACC-257
  GI50: 67.1 µM (inactive)
HL-60
  GI50: 24.5 µM (inactive)
SK-MEL-5
  GI50: 48.9 µM (inactive)
DMS-114
  GI50: 25.5 µM (inactive)
KM12
  GI50: 42.1 µM (inactive)
A549
  GI50: 45.4 µM (inactive)
SW-620
  GI50: 11.2 µM (inactive)
CCRF-CEM
  GI50: 19.3 µM (inactive)
RPMI-8226
  GI50: 43.6 µM (inactive)
HCC 2998
  GI50: 34.8 µM (inactive)
ACHN
  GI50: 33.2 µM (inactive)
EKVX
  GI50: 64 µM (inactive)
SF-268
  GI50: 44.9 µM (inactive)
MOLT-4
  GI50: 34.1 µM (inactive)
SNB-78
  GI50: 55.5 µM (inactive)
HCT-15
  GI50: 26.2 µM
LOX IMVI
  GI50: 45.2 µM (inactive)
SN12C
  GI50: 59.6 µM (inactive)
CAKI-1
  GI50: 64.9 µM (inactive)
HT-29
  GI50: 34.8 µM (inactive)
LXFL 529
  GI50: 29.4 µM (inactive)
SK-OV-3
  GI50: 27.2 µM (inactive)
IGROV-1
  GI50: 97.5 µM (inactive)
SNB-75
  GI50: 17.8 µM (inactive)
RXF 393
  GI50: 36.1 µM (inactive)
COLO 205
  GI50: 21.3 µM (inactive)
M14
  GI50: 16.3 µM (inactive)
U-251
  GI50: 23.1 µM (inactive)
OVCAR-5
  GI50: > 100 µM (inactive)
SK-MEL-2
  GI50: 29.9 µM (inactive)
OVCAR-3
  GI50: 36.9 µM (inactive)
NCI-H23
  GI50: 24.3 µM (inactive)
OVCAR-8
  GI50: 39.4 µM (inactive)
K562
  GI50: 31.8 µM (inactive)
NCI-H522
  GI50: 24.6 µM (inactive)
SF-295
  GI50: 62.4 µM (inactive)
A498
  GI50: 64 µM (inactive)
HOP-62
  GI50: 72.3 µM (inactive)
OVCAR-4
  GI50: 57.9 µM (inactive)
HOP-92
  GI50: 60.4 µM (inactive)
Malme-3M
  GI50: 64.1 µM (inactive)
XF498
  GI50: > 100 µM (inactive)
SNB-19
  GI50: 46.3 µM (inactive)
786-0
  GI50: 27 µM (inactive)
M19-MEL
  GI50: 43.8 µM (inactive)

## Cc1c(C(=O)O)n(C)c(=O)n(C)c1=O
SF-539
  GI50: > 100 µM (inactive)
UO-31
  GI50: > 100 µM (inactive)
KM-20L2
  GI50: > 100 µM (inactive)
TK-10
  GI50: > 100 µM (inactive)
HOP-18
  GI50: > 100 µM (inactive)
HCT-116
  GI50: > 100 µM (inactive)
NCI-H460
  GI50: > 100 µM (inactive)
UACC-62
  GI50: > 100 µM (inactive)
DMS-273
  GI50: > 100 µM (inactive)
DLD-1
  GI50: > 100 µM (inactive)
UACC-257
  GI50: > 100 µM (inactive)
HL-60
  GI50: > 100 µM (inactive)
SK-MEL-5
  GI50: > 100 µM (inactive)
KM12
  GI50: > 100 µM (inactive)
A549
  GI50: > 100 µM (inactive)
SW-620
  GI50: > 100 µM (inactive)
CCRF-CEM
  GI50: > 100 µM (inactive)
HCC 2998
  GI50: > 100 µM (inactive)
ACHN
  GI50: > 100 µM (inactive)
EKVX
  GI50: > 100 µM (inactive)
SF-268
  GI50: > 100 µM (inactive)
SK-MEL-28
  GI50: > 100 µM (inactive)
MOLT-4
  GI50: > 100 µM (inactive)
HCT-15
  GI50: > 100 µM
LOX IMVI
  GI50: > 100 µM (inactive)
SN12C
  GI50: > 100 µM (inactive)
CAKI-1
  GI50: > 100 µM (inactive)
HT-29
  GI50: > 100 µM (inactive)
LXFL 529
  GI50: > 100 µM (inactive)
SK-OV-3
  GI50: > 100 µM (inactive)
IGROV-1
  GI50: > 100 µM (inactive)
SNB-75
  GI50: > 100 µM (inactive)
NCI-H226
  GI50: > 100 µM (inactive)
RXF 393
  GI50: > 100 µM (inactive)
COLO 205
  GI50: > 100 µM (inactive)
M14
  GI50: > 100 µM (inactive)
U-251
  GI50: > 100 µM (inactive)
OVCAR-5
  GI50: > 100 µM (inactive)
SK-MEL-2
  GI50: > 100 µM (inactive)
OVCAR-3
  GI50: > 100 µM (inactive)
NCI-H23
  GI50: > 100 µM (inactive)
OVCAR-8
  GI50: > 100 µM (inactive)
K562
  GI50: > 100 µM (inactive)
NCI-H522
  GI50: > 100 µM (inactive)
SF-295
  GI50: > 100 µM (inactive)
A498
  GI50: > 100 µM (inactive)
HOP-62
  GI50: > 100 µM (inactive)
OVCAR-4
  GI50: > 100 µM (inactive)
HOP-92
  GI50: > 100 µM (inactive)
Malme-3M
  GI50: > 100 µM (inactive)
XF498
  GI50: > 100 µM (inactive)
SNB-19
  GI50: > 100 µM (inactive)
786-0
  GI50: > 100 µM (inactive)
M19-MEL
  GI50: > 100 µM (inactive)

Reference: ChEMBL document CHEMBL1201862, “PubChem BioAssay data set” (2004)
